Source: patent publication US5087562A, “Humoral hypercalcemic factor antagonists with modification at position 13 . . ” (Merck & Co., Inc., priority 1990, dated 1992)

Legend:
[1] = target: T1, Bovine renal cortical plasma membranes (HCF cell surface receptor) (Bos taurus, UniProt Q1LZF7); assay: HCF binding assay (radioligand receptor assay); conditions: radioligand [Nle^8,18,(^125 I)-Tyr^34]bPTH(1-34)NH2, 30 min at 21° C
T1 construct: from tissue; host or cells: bovine renal cortex plasma membranes
T1 sequence (Q1LZF7 29-589): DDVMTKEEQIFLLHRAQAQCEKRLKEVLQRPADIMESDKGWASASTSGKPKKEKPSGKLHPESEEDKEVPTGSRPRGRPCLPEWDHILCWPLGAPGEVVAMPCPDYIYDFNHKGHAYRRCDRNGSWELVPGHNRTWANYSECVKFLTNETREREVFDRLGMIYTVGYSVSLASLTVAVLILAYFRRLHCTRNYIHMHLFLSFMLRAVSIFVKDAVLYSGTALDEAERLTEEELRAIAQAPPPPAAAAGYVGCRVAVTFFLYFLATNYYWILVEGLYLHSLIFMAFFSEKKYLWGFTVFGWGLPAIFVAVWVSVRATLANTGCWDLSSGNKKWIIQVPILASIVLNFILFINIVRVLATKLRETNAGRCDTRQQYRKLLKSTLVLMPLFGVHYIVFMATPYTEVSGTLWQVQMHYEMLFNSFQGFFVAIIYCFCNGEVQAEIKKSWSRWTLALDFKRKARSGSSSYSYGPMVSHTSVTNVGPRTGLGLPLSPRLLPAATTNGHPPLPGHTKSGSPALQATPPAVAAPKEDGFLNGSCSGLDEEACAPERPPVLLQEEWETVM
Experimental: HCF analogues were analysed in a new receptor assay which modified the assay reported in Rosenblatt et al., Endocrin 107: 545-550 (1980). The binding assay used [Nle^8,18, (^125 I)-Tyr^34 ]bPTH (1-34)NH2 which was purified by HPLC (Novapak C18, 32-35% CH3 CN in 0.1% TFA) and was stored as aliquots in 25 mM TrisHCl/1%BSAat -70° C. Bovine renal cortical plasma membranes were incubated with radioligand (25,000 cpm) in a Tris-containing buffer (250 μl) for 30 min. at 21° C. Once equilibrium was reached, bound and free radioligand were separated by centrifugation.
High specific binding (85%) to bovine renal cortical membranes was obtained consistently.
The assay reported on page 546 in Rosenblatt, et al. is as follows:
Radioligand binding assay: A PTH-binding assay based on the sulfur-free ^125 I-labeled hormone analog, [Nle-8,Nle-18,Tyr-34]-bPTH-(1-34)amide,was employed (4). The assay is specific and saturable with regard to PTH binding, and binding avidity in this system correlates closely with biological acitibity for multiple PTH agonist fragments and analogs. […] Inhibition of specific binding of radioligand was assessed for each fragment over several log orders of magnitude. […] In each assay, inhibition of radioligand binding was determined in triplicate at each concentration of peptide used.

[2] = test system: bovine renal membrane adenylate cyclase; conditions: bovine renal cortical membranes; quoted from Horiuchi et al.; cited from earlier work

Compound | Kb [1] [nM] | potency in adenylate cyclase assay (stimulation) [2]
CC[C@H](C)[C@H](NC(=O)[C@H](CC(C)C)NC(=O)[C@H](Cc1c[nH]cn1)NC(=O)[C@H](Cc1c[nH]cn1)NC(=O)[C@H](CC(C)C)NC(=O)[C@H](Cc1ccccc1)NC(=O)[C@H](Cc1ccccc1)NC(=O)[C@H](CCCNC(=N)N)NC(=O)[C@H](CCCNC(=N)N)NC(=O)[C@H](CCCNC(=N)N)NC(=O)[C@H](CC(C)C)NC(=O)[C@H](CC(=O)O)NC(=O)[C@H](CCC(N)=O)NC(=O)[C@@H](NC(=O)[C@H](CO)NC(=O)[C@H](CCCCNC(=O)CCc1ccccc1)NC(=O)[C@@H](Cc1c[nH]c2ccccc12)NC(=O)[C@H](CC(C)C)NC(=O)[C@H](CC(=O)O)NC(=O)[C@H](Cc1c[nH]cn1)NC(=O)CCC(C)C)[C@@H](C)CC)C(=O)N[C@@H](C)C(=O)N[C@@H](CCC(=O)O)C(=O)N[C@H](C(=O)N[C@@H](Cc1c[nH]cn1)C(=O)N[C@H](C(=O)N[C@@H](C)C(N)=O)[C@@H](C)O)[C@@H](C)CC [desamino [Leu^11, D-Trp^12, Lys^13 (N^ε --CO(CH2)2 -Phenyl)]hHCF(8-34)NH2] | 20 ± 3 | 
hHCF-(1-34)NH2 |  | potency comparable to PTH
